Data reported in patent US20250282785A1, “PYRROLIDINONE DERIVATIVES AS INHIBITORS OF NF KAPPA B INDUCING KINASE” (priority 2022, published 2025).

Assays:
[1] = tested on: p-IKKα levels in L363 (NIK translocated multiple myeloma) cells; assay: Effect of compounds on p-IKKα levels in L363 cells (AlphaLISA SureFire Ultra); type: cell-based; details: Homo sapiens, L-363; L363 cells, BAFF stimulated, MG132, 6 h; average of values; read-out: Assay 2 IC50
Description: Biological Assay 2: Effect of Compounds on p-IKKα Levels in L363 (NIK Translocated Multiple Myeloma) Cells
All compounds tested were dissolved and serially diluted in DMSO, 1:3 dilution for 11 points in an Echo compatible plate. 100% DMSO is added to columns 12 and 24 of the plate to serve as high and low signal controls. This compound plate was used to spot 20 nl of compound or DMSO into a Greiner 384 well TC plate (781080). Final DMSO concentration was […] (v/v) in cell assays. Human L363 cells (ATCC) were cultured in RPMI 1640 medium supplemented with GlutaMax, non-essential amino acids, sodium pyruvate and 10% fetal bovine serum. Cells were routinely maintained at densities of 0.2×10^6 cells per ml −2×10^6 cells per ml at 37° C. in a humidified 5% CO2 atmosphere incubator. Cells were passaged twice a week splitting back to obtain the low density. The day before the assay, cells were washed twice in HBSS, resuspended in DMEM+0.5% IgG and protease free BSA (Jackson Immuno Research Laboratories), +/−250 ng/ml recombinant human B-cell activating factor (BAFF/BLyS/TNFSF13B) and incubated overnight at 37° C. in a humidified 5% CO2 atmosphere (bulk stimulation with or without BAFF). The next day, cell concentration was adjusted to 1×10^7 cells/ml in DMEM+/−250 ng/ml BAFF+/−10 uM MG132 and plated at 10 ul/well into compound or DMSO spotted 384 well TC plates. Seeded cells were incubated at 37° C. in a humidified 5% CO2 atmosphere for 6 h. After 6 h, plates were removed from the incubator and cell lysis was achieved by the addition of 2.5 μl 5× lysis buffer containing protease and phosphatase inhibitors, followed by shaking on a plate shaker at room temperature for 15 min. At the end of this incubation, lysed cells were sequentially treated and incubated with acceptor and donor bead mixes according to the manufacturer's protocol for a 1 plate/2-incubation suspension cell assay (AlphaLISA SureFire Ultra p-IKKα (Ser 176/180) Assay Kit (Perkin ElmeR). Plates were read using an EnVision® Multilabel Plate Reader (Perkin ElmeR). Within an experiment, a concentration response curve for each compound was run in duplicate. Signal obtained in the test wells was normalized using high signal (BAFF stimulated cells, DMSO, MG132) and low signal (unstimulated cells, DMSO) controls. To determine the IC50, a sigmoidal curve was fitted to the plot of % inhibition versus Log10 compound concentration.

[2] = molecular target: Recombinant Human NF-Kappab-Inducing Kinase (NIK/MAP3K14) (Homo sapiens, UniProt Q99558); assay: Inhibition of auto-phosphorylation of recombinant human NIK/MAP3K14 (AlphaScreen); type: biochemical; details: NIK/MAP3K14 auto-phosphorylation, 5 microM ATP, 1 nM enzyme, 2 h at 25° C.; average of values; read-out: Assay 1 IC50
Sequence of Recombinant Human NF-Kappab-Inducing Kinase (NIK/MAP3K14) (Q99558 whole entry): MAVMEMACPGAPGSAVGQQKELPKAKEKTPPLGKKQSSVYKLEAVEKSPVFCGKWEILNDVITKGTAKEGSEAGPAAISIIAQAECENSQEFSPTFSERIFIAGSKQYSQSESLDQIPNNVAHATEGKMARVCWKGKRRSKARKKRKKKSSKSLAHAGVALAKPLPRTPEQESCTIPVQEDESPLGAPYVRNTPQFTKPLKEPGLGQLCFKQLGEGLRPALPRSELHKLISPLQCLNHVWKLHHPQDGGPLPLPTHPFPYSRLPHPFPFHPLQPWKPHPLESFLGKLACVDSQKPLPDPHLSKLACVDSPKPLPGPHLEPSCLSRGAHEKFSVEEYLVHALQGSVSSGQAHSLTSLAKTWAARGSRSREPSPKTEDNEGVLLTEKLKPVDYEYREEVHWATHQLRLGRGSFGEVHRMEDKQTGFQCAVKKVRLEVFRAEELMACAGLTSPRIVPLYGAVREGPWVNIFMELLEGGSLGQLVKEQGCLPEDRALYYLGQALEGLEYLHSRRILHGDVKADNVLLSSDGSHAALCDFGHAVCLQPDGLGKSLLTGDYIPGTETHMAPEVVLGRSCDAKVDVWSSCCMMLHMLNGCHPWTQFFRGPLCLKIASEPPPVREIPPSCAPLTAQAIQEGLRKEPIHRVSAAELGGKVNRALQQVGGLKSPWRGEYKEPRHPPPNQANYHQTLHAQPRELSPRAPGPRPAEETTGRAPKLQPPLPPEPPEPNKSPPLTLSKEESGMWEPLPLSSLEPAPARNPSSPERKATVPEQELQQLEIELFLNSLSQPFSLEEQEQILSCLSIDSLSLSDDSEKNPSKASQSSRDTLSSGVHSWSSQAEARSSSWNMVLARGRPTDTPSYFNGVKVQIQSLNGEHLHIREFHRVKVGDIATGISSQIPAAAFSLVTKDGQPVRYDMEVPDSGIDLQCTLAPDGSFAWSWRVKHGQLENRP
Description: Biological Assay 1: Inhibition of Auto-Phosphorylation of Recombinant Human NF-Kappab-Inducing Kinase (NIK/MAP3K14) Activity (AlphaScreen®)
NIK/MAP3K14 auto-phosphorylation activity was measured using the AlphaScreen® ((αscreen) format (Perkin ElmeR). All compounds tested were dissolved in dimethyl sulfoxide (DMSO) and further dilutions were made in assay buffer. Final DMSO concentration was 0.7% (v/v) in assays. Assay buffer was 50 mM Tris pH 7.5 containing 1 mM EGTA (ethylene glycol tetraacetic acid), 1 mM DTT (dithiothreitol), 0.1 mM Na3VO4, 5 mM MgCl2, 0.01% Tween® 20. Assays were carried out in 384 well Proxiplates (Perkin ElmeR). Incubations consisted of compound, 5 microM Adenosine-5′-triphosphate (ATP), and 1 nM NIK/MAP3K14. Incubations were initiated by addition of GST-tagged NIK/MAP3K14 enzyme, carried out for 2 h at 25° C. and terminated by addition of stop buffer containing anti-phospho-IKK Ser176/180 antibody. Protein A Acceptor and Glutathione-donor beads were added before reading using an EnVision® Multilabel Plate Reader (Perkin ElmeR). Signal obtained in the wells was normalized using high (full enzyme activity, 0.7% DMSO) and low controls (no enzyme activity, 0.7% DMSO, no ATP). IC50's were determined by fitting a sigmoidal curve to % inhibition of control versus Log10 compound concentration.

## CN1CCC(O)(c2cc(-c3cccc(-c4c[nH]c5ncccc45)c3)on2)C1=O (racemic) [Example 9, (R,S)-3-(5-(3-(1H-Pyrrolo[2,3-b]pyridin-3-yl)phenyl)isoxazol-3-yl)-3-hydroxy-1-methylpyrrolidin-2-one]
[1]
  IC50: > 501 nM
[2]
  IC50: 100 to 500 nM

## CN1CCC(O)(c2cn(-c3cccc(-c4nc(C(N)=O)c5ccccc5n4)c3)cn2)C1=O (racemic) [Example 19, (R,S)-2-(3-(4-(3-Hydroxy-1-methyl-2-oxopyrrolidin-3-yl)-1H-imidazol-1-yl)phenyl)quinazoline-4-carboxamide]
[1]
  IC50: > 501 nM
[2]
  IC50: < 100 nM

## CN1CCC(O)(c2cc(-c3cccc(-c4nccc(C(N)=O)n4)c3)on2)C1=O (racemic) [Example 161, (R,S)-2-(3-(3-(3-Hydroxy-1-methyl-2-oxopyrrolidin-3-yl)isoxazol-5-yl)phenyl)pyrimidine-4-carboxamide]
[1]
  IC50: > 501 nM
[2]
  IC50: < 100 nM

## CN1CCC(O)(c2cc(-c3cccc(-c4ncc5ccnc(N)c5n4)c3)on2)C1=O (racemic) [Example 165]
[1]
  IC50: > 501 nM
[2]
  IC50: < 100 nM

## CN1CCC(O)(c2cc(-c3cccc(-n4nc(C(N)=O)c5ccccc54)c3)on2)C1=O (racemic) [Example 167, (R,S)-1-(3-(3-(3-Hydroxy-1-methyl-2-oxopyrrolidin-3-yl)isoxazol-5-yl)phenyl)-1H-indazole-3-carboxamide]
[1]
  IC50: 100 to 500 nM
[2]
  IC50: < 100 nM

## CN1CCC(O)(c2cc(-c3cccc(Nc4nc5c(N)ncnc5s4)c3)on2)C1=O (racemic) [Example 176, (R,S)-3-(5-(3-((7-Aminothiazolo[5,4-d]pyrimidin-2-yl)amino)phenyl)isoxazol-3-yl)-3-hydroxy-1-methylpyrrolidin-2-one]
[1]
  IC50: > 501 nM
[2]
  IC50: > 501 nM

## CN1CC[C@@](O)(c2cc(C3CCCN(c4ccc5ncnc(N)c5n4)C3)no2)C1=O (mixture of isomers) [Example 201, (3R)-3-(3-(1-(4-Aminopyrido[3,2-d]pyrimidin-6-yl)piperidin-3-yl)isoxazol-5-yl)-3-hydroxy-1-methylpyrrolidin-2-one]
[1]
  IC50: > 501 nM
[2]
  IC50: < 100 nM

## CN1CC[C@](O)(c2ncc(-c3cccc(-c4cccc(C(N)=O)n4)c3)s2)C1=O (single isomer, unassigned) [Example 28]
[1]
  IC50: > 501 nM
[2]
  IC50: 100 to 500 nM

## CN1CC[C@@](O)(c2cnn(-c3cccc(-c4cccc(C(N)=O)n4)c3)c2)C1=O (single isomer, unassigned) [Example 29]
[1]
  IC50: > 501 nM
[2]
  IC50: > 501 nM

## CN1CC[C@@](O)(c2cc(-c3cccc(-c4cccc(C(N)=O)n4)c3)n(C)n2)C1=O (single isomer, unassigned) [Example 30]
[1]
  IC50: > 501 nM
[2]
  IC50: > 501 nM

## CN1CC[C@@](O)(c2cc(-c3cccc(-c4cccc(C(N)=O)n4)c3)[nH]n2)C1=O (single isomer, unassigned) [Example 31]
[1]
  IC50: > 501 nM
[2]
  IC50: 100 to 500 nM

## [2H]c1nc(N)c2nc(-c3cccc(-c4cnc([C@@]5(O)CCN(C)C5=O)s4)c3)ccc2n1 (single isomer, unassigned) [Example 32]
[1]
  IC50: > 501 nM
[2]
  IC50: < 100 nM

## [2H]c1nc(N)c2nc(-c3cccc(-c4nc([C@]5(O)CCN(C)C5=O)cs4)c3)ccc2n1 (single isomer, unassigned) [Example 33]
[1]
  IC50: > 501 nM
[2]
  IC50: > 501 nM

## [2H]c1nc(N)c2nc(-c3cccc(-c4n[nH]c([C@]5(O)CCN(C)C5=O)n4)c3)ccc2n1 (single isomer, unassigned) [Example 34]
[1]
  IC50: > 501 nM
[2]
  IC50: > 501 nM

## [2H]c1nc(N)c2nc(-c3cccc(-c4cc([C@@]5(O)CCN(C)C5=O)n[nH]4)c3)ccc2n1 (single isomer, unassigned) [Example 37]
[1]
  IC50: > 501 nM
[2]
  IC50: > 501 nM

## [2H]c1nc(N)c2nc(-c3cccc(-c4cc([C@]5(O)CCN(C)C5=O)n[nH]4)c3)ccc2n1 (single isomer, unassigned) [Example 38]
[1]
  IC50: > 501 nM
[2]
  IC50: < 100 nM
